Experimental data taken from patent publication EP0247900A1, “Topical methotrexate preparation for the treatment of hyperproliferative epithelial disease” (THE REGENTS OF THE UNIVERSITY OF CALIFORNIA, priority 1986, dated 1987).

Assays:
[1] = system: psoriasis; details: 0.1% and 0.5% MTX in vehicle with 2.5% C-10-methylsulfoxide, six patients, daily for nine days; cited from earlier work
[2] = prior-art topical MTX preparations, in vitro and in vivo; cited from earlier work
[3] = system: psoriatic epidermal DNA synthesis; experiment: Intradermal administration of MTX; type: in vivo; details: administered intradermally, compared with systemic MTX
Description: Thus, it has been discovered that MTX or its analogs can be administered topically in an effective manner to skin afflicted with a hyperproliferative epithelial disease avoiding, therefore, the serious side effects associated with systemic MTX administration.

[4] = system: epidermal DNA synthesis; experiment: In vivo epidermal DNA synthesis (tritiated deoxyuridine incorporation) after topical MTX in hairless mice; parameters: species or system HRS/J albino hairless mice; details: for suppression of epidermal DNA synthesis in treated back skin: compared to Vehicle N treated control
Description: Deoxyuridine (6-^3H) (25 Ci/mmol) was obtained from New England Nuclear. Other materials were obtained as described in Example I.
(§1) HRS/J albino hairless mice, age 2-3 months, were used for these experiments. For induction of the […] fatty acid deficiency, 3-week-old animals were fed an essential fatty acid deficient diet (Teklad) for 60 days.
(§2) Six to ten mice were used for each treatment group. Tritiated deoxyuridine was utilized as a precursor for assaying the effects of methotrexate on the de novo pathway for epidermal DNA synthesis. The incorporation of tritiated deoxyuridine into DNA depends on the normal functioning of dihydrofolate reductase which is blocked by methotrexate. At selected time points after single or repeated topical MTX applications, mice were injected IP with tritiated deoxyuridine (50-100 uCi) for measurement of epidermal DNA synthesis in treated backskin to determine the local effect of MTX. DNA synthesis was simultaneously measured in untreated abdominal skin of Vehicle N and MTX-treated animals to determine systemic effects of MTX at a distant site. One hour after administration of isotope, animals were sacrificed by cervical dislocation, and treated backskin and untreated abdominal skin was obtained. Epidermis was removed after incubating the skin specimens for 1 hr at 37°C in 2 M sodium bromide. DNA was extracted and assayed using the technique described by Halprin et al (1979) J Invest Derm 73:359-363. Results of epidermal DNA synthesis were calculated as counts/minute/ug of DNA. The effects of MTX treatment on DNA synthesis of the back and abdomen were expressed as percentage of the DNA synthesis of Vehicle N treated back skin and untreated abdomin in control animals.

[5] = In vitro percutaneous penetration of MTX in glass diffusion cells
Description: Methotrexate was obtained from Lederle Laboratories, Pearl River, NY. Methotrexate (3',5',7-^3H)sodium (250 mCi/mmol) was obtained from Amersham and prior to use was purified by chromatography on thin-layer cellulose plates in 0.006 M potassium phosphate buffer, pH 6.0. Vehicle N was obtained from the Neutrogena Corporation. Los Angeles, CA.
The percutaneous penetration of MTX was measured in glass diffusion cells as previously described. McCullough et al (1976) J Invest Derm 66:103-107. Excised human skin obtained from abdominoplasty was used for these studies. First, 0.5 ml containing 10 µCi methotrexate-^3H and cold methotrexate to give a final concentration of 2% in various vehicles was applied to the epidermal surface (0.2 ml/cm^2). A total of […] methotrexate was applied to each diffusion cell. The dermal reservoir contained phosphate buffered saline. Three diffusion cells were run for each vehicle. Diffusion cells were incubated with constant stirring at 28°C. Methotrexate penetration was followed at various time points up to 48 hr by liquid scintillation counting. The test solution was removed after the 48 hr incubation period, and the epidermal surface was rinsed three times with vehicle in which the drug being tested was dissolved. […] The epidermis was separated by heating the skin for 1 min on a hot plate at 60°C. MTX was extracted from the epidermis and dermis utilizing the techniques described by Werkheiser et al (1962) J Pharmacol Exp Ther 137:162-166, which specifically disassociates MTX from cellular bound proteins. The stratum corneum was removed by repeated stripping with cellophane tape until the skin glistened.
In vitro percutaneous penetration studies were carried out according to the methods of Example I with formulations of a topical gel containing about 3% Azone and various concentrations of MTX.
Employing the methods described in Example I, various vehicles containing 2% by weight of tritiated MTX were tested in vitro on human skin.
Additional studies with the mini-pig model, as described in Example IV, were conducted to test various carriers with different concentrations of MTX and Azone. Formulations were applied daily for 7 days. Three sites per treatment area were injected with ^3H-UdR. Autoradiographs were scored at 4 wk. Techniques as described in Examples I and II were employed to measure percutaneous penetration and DNA synthesis.
Various vehicle formulations were evaluated in vitro at various MTX concentrations for penetration of MTX into the epidermis. Penetration was evaluated as described in Example I. Unless otherwise noted, all vehicles were a gel formulation that contained 3% Azone.

[6] = system: hairless mouse skin; experiment: Skin changes after topical MTX in normal and essential fatty acid deficient hairless mice; type: in vivo, HRS/J albino hairless mice; details: three daily applications of 2% MTX in Vehicle N, untreated abdominal skin not similarly affected
Description: as §1
as §2, with “Topical MTX preparations at various concentrations or vehicle control in the amount of 0.05 ml were applied to the backskin area of 1.5 cm by 3 cm daily for 1 or 3 days. Six” for “Six”, “One hour after administration of isotope, animals were sacrificed by cervical dislocation, and treated backskin and untreated abdominal skin was obtained. Epidermis was removed after incubating the skin specimens for 1 hr at 37°C in 2 M sodium bromide. DNA was extracted and assayed using the technique described by Halprin et al (1979) J Invest Derm 73:359-363.” left out, “animals. […]” for “animals.”

[7] = system: epidermal DNA synthesis; experiment: In vivo epidermal labeling index (DNA synthesis) in the mini-pig model; parameters: species or system Mini-pigs; details: for Epidermal Labeling Index: applied daily for 7 days, mini-pig dorsal skin
Description: The formulations of Example III were tested for effect on in vivo DNA synthesis in the mini-pig model. Mini-pig skin closely resembles human skin and the effect of a drug on epidermal cell proliferation is a recognized test for the effectiveness of therapeutic protocols for hyperproliferative skin disease.
Mini-pigs were obtained from Charles River Laboratories, Inc. (Wilmington, MA). Drug preparations were applied to small areas of dorsal skin (ca 1 inch square) according to the selected application schedules. Six hours following the last drug application, tritiated thymidine was injected into the drug treatment sites for autoradiographic assessment of epidermal proliferation as measured by epidermal labeling index. Weinstein & and Van Scott, (1965) J. Invest. Derm. 44:413
A vehicle containing various concentrations of MTX was applied daily for 7 days. Tritiated deoxyuridine was injected into the treatment sites on day 7, as well as in untreated control area. DNA synthesis was measured as described in Example II.
Formulations were applied daily for 7 days. […] Autoradiographs were scored at 4 wk.

[8] = 0.1% Methotrexate in topical gel containing about 3% Azone
[9] = 0.5% Methotrexate in topical gel containing about 3% Azone
[10] = 1.0% Methotrexate in topical gel containing about 3% Azone

SMILES: CN(Cc1cnc2nc(N)nc(N)c2n1)c1ccc(C(=O)N[C@@H](CCC(=O)O)C(=O)O)cc1 [MTX, Methotrexate]
- clinical improvement [1]: no significant improvement in any of the patients
- percutaneous penetration of human skin [2]: negligible percutaneous penetration
- biochemical effects and biological actions [3]: same biochemical effects (inhibition of psoriatic epidermal DNA synthesis) and biological actions (mitotic inhibition and damaged cell production) as systemic MTX
- effect on DNA synthesis in back skin and untreated abdominal skin ([4]; four daily applications of MTX in Vehicle N): total suppression of DNA synthesis
- effect on DNA synthesis ([4]; single application of MTX in Vehicle N): ineffective
- effect on DNA synthesis in treated skin ([4]; three daily applications of 1% MTX in Vehicle N, 6 hr after the last treatment): produced inhibition of DNA synthesis
- systemic effect on DNA synthesis in untreated abdominal skin ([4]; three daily applications of 2% MTX in Vehicle N, at 54 hr (6 hr after the last treatment)): no significant (p < 0.001) systemic methotrexate effect
- suppression of epidermal DNA synthesis in treated back skin ([4]; three daily applications of 2% MTX in Vehicle N, at 54 hr): 50%
- local and systemic effect on DNA synthesis ([4]; three daily applications of 2% MTX in Vehicle N, at 72 hr, 24 hr after the last treatment): both local and systemic effects were obtained
- suppression of epidermal DNA synthesis in treated back skin ([4]; three daily applications of 2% MTX in Vehicle N, at 72 hr): 75%
- effect on DNA synthesis ([4]; three daily applications of MTX in Vehicle N at concentrations lower than 1%): no local or systemic effect
- effect on epidermal DNA synthesis ([4]; topical MTX (0.5%) in N-decylmethylsulfoxide): no effect on epidermal DNA synthesis
- Cumulative Penetration 48 hr [5, 8]: 0.6 ± 0.2 µg
- Epidermal Content [5, 8]: 3.9 ± 0.3 µg
- Cumulative Penetration 48 hr [5, 9]: 7.5 ± 1.4 µg
- Epidermal Content [5, 9]: 24.1 ± 8.1 µg
- Cumulative Penetration 48 hr [5, 10]: 18.7 ± 6.1 µg
- Epidermal Content [5, 10]: 36.0 ± 11.7 µg
- effect on epidermis of treated skin [6]: marked epidermal atrophy
- Epidermal Labeling Index ([7]; 0.5% Methotrexate in gel with about 3% Azone): 0.0 ± 0.0%
- labeling intensity (rate of DNA synthesis) ([7]; 0.5% and 1.0% MTX in Azone gel, daily for 7 days, compared to the vehicle control): slight decrease in labeling intensity
- Epidermal Labeling Index ([7]; 1.0% Methotrexate in gel with about 3% Azone): 0.8 ± 1.4%
